ChEMBL document CHEMBL1201862, “PubChem BioAssay data set” (2004)
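Results reflect a 48-hour exposure of cells in 96-well plates to compound at five concentrations. GI50: concentration for 50% inhibition of growth.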 Active and inactive are the calls of the source. Cut-off read from the data, not from the text of the source: active = GI50 up to about 1.1 µM and inactive = higher. Residues, ends and D or L forms follow the SMILES beside them.

What was measured:
Assay in all cases: NCI-60 cell line screen, 48 h
HL-60 = tested on: HL-60
MOLT-4 = tested on: MOLT-4
NCI-H522 = tested on: NCI-H522
HCT-15 = tested on: HCT-15
MDA-MB-231 = tested on: MDA-MB-231
HCC 2998 = tested on: HCC 2998
SF-295 = tested on: SF-295
LOX IMVI = tested on: LOX IMVI
CAKI-1 = tested on: CAKI-1
Hs-578T = tested on: Hs-578T
NCI-H23 = tested on: NCI-H23
NCI-H226 = tested on: NCI-H226
U-251 = tested on: U-251
SN12C = tested on: SN12C
OVCAR-5 = tested on: OVCAR-5
SF-268 = tested on: SF-268
HCT-116 = tested on: HCT-116
EKVX = tested on: EKVX
A498 = tested on: A498
Malme-3M = tested on: Malme-3M

SMILES | GI50 (HL-60) | GI50 (MOLT-4) | GI50 (NCI-H522) | GI50 (HCT-15) | GI50 (MDA-MB-231) | GI50 (HCC 2998) | GI50 (SF-295) | GI50 (LOX IMVI) | GI50 (CAKI-1) | GI50 (Hs-578T) | GI50 (NCI-H23) | GI50 (NCI-H226) | GI50 (U-251) | GI50 (SN12C) | GI50 (OVCAR-5) | GI50 (SF-268) | GI50 (HCT-116) | GI50 (EKVX) | GI50 (A498) | GI50 (Malme-3M)
CC1(C)CC2C=C(C=O)C3(C=O)CC3(C)C2C1 (configuration not stated) | 0.0333 µM (active) | 0.191 µM (active) | 1.09 µM (active) | 1.64 µM | 1.91 µM (inactive) | 5.5 µM (inactive) | 4.5 µM (inactive) | 1.34 µM (inactive) | 2.05 µM (inactive) | 2.24 µM (inactive) | 1.83 µM (inactive) | 4.21 µM (inactive) | 1.79 µM (inactive) | 2.54 µM (inactive) | 1.79 µM (inactive) | 3.88 µM (inactive) | 0.847 µM (active) | 3.4 µM (inactive) | – | –
CCOP(=O)(/C=C\n1ccc(N)nc1=O)OCC | > 100 µM (inactive) | > 100 µM (inactive) | 47.4 µM (inactive) | > 100 µM | > 100 µM (inactive) | – | > 100 µM (inactive) | > 100 µM (inactive) | > 100 µM (inactive) | 0.349 µM (active) | > 100 µM (inactive) | > 100 µM (inactive) | > 100 µM (inactive) | > 100 µM (inactive) | > 100 µM (inactive) | > 100 µM (inactive) | > 100 µM (inactive) | > 100 µM (inactive) | – | –
CC(=O)OCC1=C(C)C(OC(=O)C(OC(C)=O)[C@@H](NC(=O)c2ccccc2)c2ccccc2)CCC1(C)C (some centres not stated) | > 100 µM (inactive) | > 100 µM (inactive) | – | > 100 µM | > 100 µM (inactive) | > 100 µM (inactive) | > 100 µM (inactive) | > 100 µM (inactive) | > 100 µM (inactive) | – | > 100 µM (inactive) | > 100 µM (inactive) | > 100 µM (inactive) | > 100 µM (inactive) | > 100 µM (inactive) | > 100 µM (inactive) | > 100 µM (inactive) | > 100 µM (inactive) | > 100 µM (inactive) | > 100 µM (inactive)
CC(=O)NC(CO)C(=O)NC(Cc1ccc(O)cc1)C(=O)NCC(N)=O (stereo not drawn) (Ac-Ser-Tyr-Gly-NH2; configuration not given here) | > 100 µM (inactive) | > 100 µM (inactive) | 74.5 µM (inactive) | > 100 µM | > 100 µM (inactive) | > 100 µM (inactive) | > 100 µM (inactive) | > 100 µM (inactive) | > 100 µM (inactive) | – | > 100 µM (inactive) | > 100 µM (inactive) | > 100 µM (inactive) | > 100 µM (inactive) | > 100 µM (inactive) | > 100 µM (inactive) | > 100 µM (inactive) | > 100 µM (inactive) | > 100 µM (inactive) | > 100 µM (inactive)
